In PMC9002265, “A New Series of Strigolactone Analogs Derived From Cinnamic Acids as Germination Inducers for Root Parasitic Plants” (Frontiers in Plant Science, 2022):

Tested on: Arabidopsis max4 mutant
Assay: Shoot branching assay, hydroponic culture
Format: in vivo
Details: 1 μM in hydroponic culture
Description: Sterilized seeds of the Arabidopsis max4-8 mutant were put on the rockwool which was soaked in Noren’s hydroponic solution ([Noren et al., 2004]) and cultured at 22°C for 14 days under LED light (105 μmol/m^2/s) with a 16 h light/8 h dark photoperiod. Seedlings were transferred to a plastic pot containing 800 ml of hydroponic culture and grown under the same conditions for additional 15 or 16 days. Test compounds were dissolved in acetone and added to hydroponic culture. The final concentration of test compounds was 1 or 5 μM and acetone was adjusted to 0.01% (v/v). The hydroponic culture was renewed after 7 days. The number of rosette branches (>5 mm) was counted. In the experience at 5 μM concentration, fresh weight of shoot was also measured to evaluate the side effects of tested compounds.

`CC1=CC(O/C=C2\CCOC2=O)OC1=O` (stereo not shown) [GR5] was tested, and the “shoot branching inhibition of max4” value was “clearly inhibited shoot branching”.
